From patent US12018011B2, “Macrocyclic compounds and compositions, and methods of preparing and using the same” (Kura Oncology, Inc., priority 2021, dated 2024)
Read-outs that look alike come from different tables or passages of the source.

Key:
[1] = ether bond, 13-membered ring, SOCl2, then Cs2CO3, 2 steps
[2] = ether bond, 13-membered ring, DMF

Substance: 4^6-chloro-2^2-methoxy-3-(1-methyl-1H-imidazol-5-yl)-6-oxa-2(4,6)-quinolina-4(3,5)-pyridina-1(1,3)-benzenacyclohexaphan-3-ol
- ring closure, crude yield ([1]; DMF, 64.5 mM, 70.0 °C): 95.6%

Substance: 4^4-bromo-2^2-chloro-3-(1-methyl-1H-imidazol-5-yl)-6-oxa-2(4,6)-quinolina-1,4(1,3)-dibenzenacyclohexaphan-3-ol
- ring closure, crude yield ([1]; DMF, 116.2 mM, 70.0 °C): 84%

Substance: 4^4-bromo-3-(1-methyl-1H-imidazol-5-yl)-6-oxa-2(1,7)-isoquinolina-1,4(1,3)-dibenzenacyclohexaphan-3-ol
- ring closure, isolated yield ([2]; Cs2CO3, 77.0 mM, 50.0 °C): 60.6%

Substance: 4^4-chloro-2^2-methoxy-3-(1-methyl-1H-imidazol-5-yl)-6-oxa-2(4,6)-quinolina-1,4(1,3)-dibenzenacyclohexaphan-3-ol
- ring closure, crude yield ([1]; DMF/THF 1:3, 9.96 mM, 105.0 °C): 90.7%

Substance: 4^4-chloro-2^2-methoxy-3-(4-methyl-4H-1,2,4-triazol-3-yl)-6-oxa-2(4,6)-quinolina-1,4(1,3)-dibenzenacyclohexaphan-3-ol
- ring closure, isolated yield ([2]; K2CO3, 29.8 mM, 55.0 °C): 69.1%
